# Test results reported in patent US20100041089A1, “IMPROVED METHOD FOR DETECTING CHEMICAL […]” (priority 2006, published 2010).
# Test system: yeast genes (expressed mRNA)
# Assay: DNA chip measurement of expressed mRNA of yeast genes after culture with a toxic chemical substance
# Assay type: cell-based, Saccharomyces cerevisiae S288C
# Conditions: for level of expressed mRNA in the presence of chemical substance / level in the absence of chemical substance: cultured two hours with the chemical substance; for The level of expressed mRNA in the presence of chemical substance/The level of expressed mRNA in the absence of chemical substance: cultured two hours with substance
# Summary of the method: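 Each expression value is the mRNA level in chemical-treated yeast divided by that in untreated yeast, from Cy3/Cy5 fluorescence on a whole-genome chip. Log-phase S288C cells in YPD at 25° C had received a sublethal, growth-inhibiting dose for two hours. Intensity denotes control expression relative to the all-gene mean.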
structure (smiles),measurement,setting,value
"[Cl][Hg][Cl] [(3), HgCl2]",level of expressed mRNA in the presence of chemical substance / level in the absence of chemical substance,yeast gene YNL058C,2.1
same,level of expressed mRNA in the presence of chemical substance / level in the absence of chemical substance,yeast gene YNL063W,0.9
same,The level of expressed mRNA in the presence of chemical substance/The level of expressed mRNA in the absence of chemical substance,yeast gene YNL074C,1.8
same,The level of expressed mRNA in the presence of chemical substance/The level of expressed mRNA in the absence of chemical substance,yeast gene YNL092W,2.4
same,The level of expressed mRNA in the presence of chemical substance/The level of expressed mRNA in the absence of chemical substance,yeast gene YNL115C,1.6
same,The level of expressed mRNA in the presence of chemical substance/The level of expressed mRNA in the absence of chemical substance,yeast gene YNL156C,0.9
same,level of expressed mRNA in the presence of chemical substance / level in the absence of chemical substance,yeast gene YNL176C,2.9
same,level of expressed mRNA in the presence of chemical substance / level in the absence of chemical substance,yeast gene YNL194C,2.0
same,level of expressed mRNA in the presence of chemical substance / level in the absence of chemical substance,yeast gene YNL200C,3.6
same,The level of expressed mRNA in the presence of chemical substance/The level of expressed mRNA in the absence of chemical substance,yeast gene YNL234W,0.6
same,level of expressed mRNA in the presence of chemical substance / level in the absence of chemical substance,yeast gene YNL253W,0.6
same,level of expressed mRNA in the presence of chemical substance / level in the absence of chemical substance,yeast gene YNL276C,1.9
same,The level of expressed mRNA in the presence of chemical substance/The level of expressed mRNA in the absence of chemical substance,yeast gene YNL281W,2.0
same,The level of expressed mRNA in the presence of chemical substance/The level of expressed mRNA in the absence of chemical substance,yeast gene YNL305C,2.7
same,level of expressed mRNA in the presence of chemical substance / level in the absence of chemical substance,yeast gene YNR051C,1.1
same,The level of expressed mRNA in the presence of chemical substance/The level of expressed mRNA in the absence of chemical substance,yeast gene YNR068C,2.3
same,level of expressed mRNA in the presence of chemical substance / level in the absence of chemical substance,yeast gene YOL026C,0.7
same,The level of expressed mRNA in the presence of chemical substance/The level of expressed mRNA in the absence of chemical substance,yeast gene YOL032W,2.0
same,The level of expressed mRNA in the presence of chemical substance/The level of expressed mRNA in the absence of chemical substance,yeast gene YOL036W,1.3
same,The level of expressed mRNA in the presence of chemical substance/The level of expressed mRNA in the absence of chemical substance,yeast gene YOL047C,1.1
same,The level of expressed mRNA in the presence of chemical substance/The level of expressed mRNA in the absence of chemical substance,yeast gene YOL071W,1.7
same,The level of expressed mRNA in the presence of chemical substance/The level of expressed mRNA in the absence of chemical substance,yeast gene YOL082W,1.6
same,The level of expressed mRNA in the presence of chemical substance/The level of expressed mRNA in the absence of chemical substance,yeast gene YOL083W,1.2
same,The level of expressed mRNA in the presence of chemical substance/The level of expressed mRNA in the absence of chemical substance,yeast gene YOL117W,0.5
same,The level of expressed mRNA in the presence of chemical substance/The level of expressed mRNA in the absence of chemical substance,yeast gene YOL131W,0.6
same,The level of expressed mRNA in the presence of chemical substance/The level of expressed mRNA in the absence of chemical substance,yeast gene YOL150C,9.9
same,The level of expressed mRNA in the presence of chemical substance/The level of expressed mRNA in the absence of chemical substance,yeast gene YOL162W,1.7
same,The level of expressed mRNA in the presence of chemical substance/The level of expressed mRNA in the absence of chemical substance,yeast gene YOR019W,0.8
same,level of expressed mRNA in the presence of chemical substance / level in the absence of chemical substance,yeast gene YOR022C,1.1
same,level of expressed mRNA in the presence of chemical substance / level in the absence of chemical substance,yeast gene YOR087W,1.8
same,level of expressed mRNA in the presence of chemical substance / level in the absence of chemical substance,yeast gene YOR138C,0.7
same,The level of expressed mRNA in the presence of chemical substance/The level of expressed mRNA in the absence of chemical substance,yeast gene YOR197W,1.1
same,level of expressed mRNA in the presence of chemical substance / level in the absence of chemical substance,yeast gene YOR253W,1.0
same,level of expressed mRNA in the presence of chemical substance / level in the absence of chemical substance,yeast gene YOR267C,1.0
same,level of expressed mRNA in the presence of chemical substance / level in the absence of chemical substance,yeast gene YOR325W,1.5
same,level of expressed mRNA in the presence of chemical substance / level in the absence of chemical substance,yeast gene YPL005W,1.0
same,The level of expressed mRNA in the presence of chemical substance/The level of expressed mRNA in the absence of chemical substance,yeast gene YPL087W,3.0
same,level of expressed mRNA in the presence of chemical substance / level in the absence of chemical substance,yeast gene YPL150W,1.6
same,level of expressed mRNA in the presence of chemical substance / level in the absence of chemical substance,yeast gene YPL152W,1.4
same,level of expressed mRNA in the presence of chemical substance / level in the absence of chemical substance,yeast gene YPL168W,0.5
same,level of expressed mRNA in the presence of chemical substance / level in the absence of chemical substance,yeast gene YPL180W,0.7
same,level of expressed mRNA in the presence of chemical substance / level in the absence of chemical substance,yeast gene YPL188W,2.9
same,The level of expressed mRNA in the presence of chemical substance/The level of expressed mRNA in the absence of chemical substance,yeast gene YPL196W,1.3
same,The level of expressed mRNA in the presence of chemical substance/The level of expressed mRNA in the absence of chemical substance,yeast gene YPL206C,1.4
same,level of expressed mRNA in the presence of chemical substance / level in the absence of chemical substance,yeast gene YPL221W,1.0
same,The level of expressed mRNA in the presence of chemical substance/The level of expressed mRNA in the absence of chemical substance,yeast gene YPL222W,0.8
same,level of expressed mRNA in the presence of chemical substance / level in the absence of chemical substance,yeast gene YPL225W,1.0
same,The level of expressed mRNA in the presence of chemical substance/The level of expressed mRNA in the absence of chemical substance,yeast gene YPR023C,1.2
same,level of expressed mRNA in the presence of chemical substance / level in the absence of chemical substance,yeast gene YPR049C,1.5
same,level of expressed mRNA in the presence of chemical substance / level in the absence of chemical substance,yeast gene YPR146C,1.3
same,level of expressed mRNA in the presence of chemical substance / level in the absence of chemical substance,yeast gene YPR148C,0.8
same,The level of expressed mRNA in the presence of chemical substance/The level of expressed mRNA in the absence of chemical substance,yeast gene YPR151C,1.5
same,level of expressed mRNA in the presence of chemical substance / level in the absence of chemical substance,yeast gene YPR172W,2.2
